Experimental data taken from PubChem BioAssay (NCI).
Several values for one entry are separate records, joined by “and”; a condition that tells them apart may be missing. Identical values can stand only once.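 Test compounds were applied to cells in 96-well plates for 48 hours at 5 doses. GI50 = concentration required for 50% inhibition of growth. TGI marks complete inhibition of growth.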

How the values were obtained:
Assay in all cases: NCI anticancer screen, dose series, 48 h
ACHN renal = test system: ACHN renal
OVCAR-5 ovarian = test system: OVCAR-5 ovarian
M14 melanoma = test system: M14 melanoma
SK-MEL-28 melanoma = test system: SK-MEL-28 melanoma
NCI-H226 lung = test system: NCI-H226 lung
NCI-H23 lung = test system: NCI-H23 lung
786-0 renal = test system: 786-0 renal
SF-295 CNS = test system: SF-295 CNS
SF-539 CNS = test system: SF-539 CNS
RPMI-8226 leukemia = test system: RPMI-8226 leukemia
BT-549 breast = test system: BT-549 breast
UO-31 renal = test system: UO-31 renal
U251 CNS = test system: U251 CNS
MALME-3M melanoma = test system: MALME-3M melanoma

SMILES: c1ccc([P+](Cc2ccccc2C[P+](c2ccccc2)(c2ccccc2)c2ccccc2)(c2ccccc2)c2ccccc2)cc1
- TGI (ACHN renal): > 100 µM
- TGI (OVCAR-5 ovarian): > 100 µM
- TGI (M14 melanoma): > 100 µM
- TGI (SK-MEL-28 melanoma): > 100 µM
- TGI (NCI-H226 lung): > 100 µM
- TGI (NCI-H23 lung): > 100 µM
- TGI (786-0 renal): > 100 µM
- TGI (SF-295 CNS): > 100 µM
- TGI (SF-539 CNS): > 100 µM
- TGI (RPMI-8226 leukemia): > 100 µM
- TGI (BT-549 breast): > 100 µM
- TGI (UO-31 renal): > 100 µM
- TGI (U251 CNS): > 100 µM
- TGI (MALME-3M melanoma): > 100 µM

SMILES: CNC(=O)N(CCC#N)CCCN(C(=O)NC)c1ccccc1
- TGI (ACHN renal): > 100 µM
- TGI (OVCAR-5 ovarian): > 100 µM
- TGI (M14 melanoma): > 100 µM
- TGI (SK-MEL-28 melanoma): > 100 µM
- TGI (NCI-H226 lung): > 100 µM
- TGI (NCI-H23 lung): > 100 µM
- TGI (786-0 renal): > 100 µM
- TGI (SF-295 CNS): > 100 µM
- TGI (SF-539 CNS): > 100 µM
- TGI (RPMI-8226 leukemia): > 100 µM
- TGI (BT-549 breast): > 100 µM
- TGI (UO-31 renal): > 100 µM
- TGI (U251 CNS): > 100 µM
- TGI (MALME-3M melanoma): > 100 µM

SMILES: CC(=O)Nc1ccc(-c2nc3ccccc3s2)cc1I
- TGI (ACHN renal): > 100 µM
- TGI (M14 melanoma): > 87.7 µM
- TGI (SK-MEL-28 melanoma): > 100 µM
- TGI (NCI-H226 lung): 59.4 µM
- TGI (NCI-H23 lung): 51.4 µM
- TGI (786-0 renal): 44.5 µM
- TGI (SF-295 CNS): > 100 µM
- TGI (SF-539 CNS): 55.6 µM
- TGI (RPMI-8226 leukemia): > 100 µM
- TGI (BT-549 breast): 81 µM
- TGI (UO-31 renal): 67.9 µM
- TGI (U251 CNS): > 81.6 µM
- TGI (MALME-3M melanoma): > 94.2 µM

SMILES: O=C(Nc1ccccc1)N(C1=NCC(CI)S1)c1ccc(F)cc1F (stereo not given)
- TGI (ACHN renal): > 100 µM
- TGI (OVCAR-5 ovarian): > 100 µM
- TGI (M14 melanoma): > 100 µM
- TGI (SK-MEL-28 melanoma): 83.4 µM
- TGI (NCI-H226 lung): > 100 µM
- TGI (NCI-H23 lung): > 100 µM
- TGI (786-0 renal): > 100 µM
- TGI (SF-295 CNS): > 100 µM
- TGI (SF-539 CNS): > 100 µM
- TGI (RPMI-8226 leukemia): > 100 µM
- TGI (BT-549 breast): 89.4 µM
- TGI (UO-31 renal): > 100 µM
- TGI (U251 CNS): > 100 µM
- TGI (MALME-3M melanoma): > 100 µM

SMILES: COc1ccc2[nH]cc([C@@H]3C4CCC(C4)[C@H]3NCc3cccc(CN[C@H]4C5CCC(C5)[C@@H]4c4c[nH]c5ccc(OC)cc45)c3)c2c1
- TGI (ACHN renal): 2.55 µM and 3.16 µM
- TGI (OVCAR-5 ovarian): 3.12 µM and 2.88 µM
- GI50 (M14 melanoma): 0.423 µM
- TGI (M14 melanoma): 1.41 µM and 1.5 µM
- GI50 (SK-MEL-28 melanoma): 1.67 µM and 1.68 µM
- TGI (SK-MEL-28 melanoma): 3.05 µM and 3.07 µM
- TGI (NCI-H226 lung): 3.64 µM
- TGI (NCI-H23 lung): 3 µM and 2.93 µM
- TGI (786-0 renal): 1.9 µM and 2 µM
- TGI (SF-295 CNS): 2.97 µM and 3.08 µM
- TGI (SF-539 CNS): 3.21 µM and 2.5 µM
- GI50 (RPMI-8226 leukemia): 0.66 µM
- TGI (RPMI-8226 leukemia): 1.65 µM and 1.26 µM
- TGI (BT-549 breast): 3.16 µM and 3.18 µM
- TGI (UO-31 renal): 2.85 µM and 2.64 µM
- GI50 (U251 CNS): 0.168 µM and 0.17 µM
- TGI (U251 CNS): 0.329 µM and 0.324 µM
- TGI (MALME-3M melanoma): 3.32 µM and 3.31 µM

SMILES: Cc1oc2c(Cl)cc(O)c(Cl)c2c2cccc1-2
- TGI (ACHN renal): > 100 µM
- TGI (OVCAR-5 ovarian): > 100 µM
- TGI (M14 melanoma): > 100 µM
- TGI (SK-MEL-28 melanoma): 57.5 µM
- TGI (NCI-H226 lung): 61.6 µM
- TGI (NCI-H23 lung): 44.1 µM
- TGI (786-0 renal): 76 µM
- TGI (SF-295 CNS): > 100 µM
- TGI (SF-539 CNS): 71.4 µM
- TGI (RPMI-8226 leukemia): 36.6 µM
- TGI (BT-549 breast): 74.2 µM
- TGI (UO-31 renal): > 100 µM
- TGI (U251 CNS): 64.9 µM
- TGI (MALME-3M melanoma): 53.1 µM

SMILES: CCCCCCOc1ccc(C(=O)NO)cc1
- TGI (ACHN renal): 21.5 µM
- TGI (OVCAR-5 ovarian): 40.4 µM
- TGI (M14 melanoma): 34 µM
- TGI (SK-MEL-28 melanoma): 43.9 µM
- TGI (NCI-H226 lung): 32.6 µM
- TGI (NCI-H23 lung): 23 µM
- TGI (786-0 renal): 16.6 µM
- TGI (SF-295 CNS): 40.9 µM
- TGI (SF-539 CNS): 45.7 µM
- TGI (RPMI-8226 leukemia): 29.8 µM
- TGI (BT-549 breast): 72.8 µM
- TGI (UO-31 renal): 20.1 µM
- TGI (U251 CNS): 28.9 µM
- TGI (MALME-3M melanoma): 34.4 µM

SMILES: CC(NC(=O)C(N)CC(=O)O)NC(=O)C1CCC1 (stereo not given)
- TGI (ACHN renal): > 100 µM
- TGI (OVCAR-5 ovarian): > 100 µM
- TGI (M14 melanoma): > 100 µM
- TGI (SK-MEL-28 melanoma): > 100 µM
- TGI (NCI-H226 lung): > 100 µM
- TGI (NCI-H23 lung): > 100 µM
- TGI (786-0 renal): > 100 µM
- TGI (SF-539 CNS): > 100 µM
- TGI (RPMI-8226 leukemia): > 100 µM
- TGI (BT-549 breast): > 100 µM
- TGI (UO-31 renal): > 100 µM
- TGI (U251 CNS): > 100 µM
- TGI (MALME-3M melanoma): > 100 µM

SMILES: O=c1[nH]nc(Cc2ccccc2)n1/N=C\c1ccccc1
- TGI (ACHN renal): > 100 µM
- TGI (OVCAR-5 ovarian): > 100 µM
- TGI (SK-MEL-28 melanoma): > 100 µM
- TGI (NCI-H226 lung): > 100 µM
- TGI (NCI-H23 lung): > 100 µM
- TGI (786-0 renal): > 100 µM
- TGI (SF-295 CNS): > 100 µM
- TGI (SF-539 CNS): > 100 µM
- TGI (RPMI-8226 leukemia): > 100 µM
- TGI (BT-549 breast): > 100 µM
- TGI (UO-31 renal): > 100 µM
- TGI (U251 CNS): > 100 µM
- TGI (MALME-3M melanoma): > 100 µM

SMILES: CC1=CC[C@@]2(CO)[C@@H]([C@@H]1C)[C@H]1CC[C@@H]3[C@@]4(C)CC[C@H](O)C(C)(C)[C@@H]4CC[C@@]3(C)[C@]1(C)C[C@@H]2O
- TGI (ACHN renal): 91.7 µM
- TGI (OVCAR-5 ovarian): > 100 µM
- TGI (M14 melanoma): > 100 µM
- TGI (SK-MEL-28 melanoma): > 100 µM
- TGI (NCI-H226 lung): 81.4 µM
- TGI (NCI-H23 lung): 46.4 µM
- TGI (786-0 renal): > 100 µM
- TGI (SF-295 CNS): 58.4 µM
- TGI (BT-549 breast): 59.2 µM
- TGI (UO-31 renal): > 100 µM
- TGI (U251 CNS): 46.7 µM
- TGI (MALME-3M melanoma): 72.8 µM

SMILES: COc1cccc2c1OC(c1ccc(C#N)cc1)C([N+](=O)[O-])=C2 (stereo not given)
- TGI (ACHN renal): 3.49 µM
- TGI (OVCAR-5 ovarian): 3.72 µM
- TGI (M14 melanoma): 3.18 µM
- TGI (SK-MEL-28 melanoma): 5.93 µM
- TGI (NCI-H226 lung): 9.75 µM
- TGI (NCI-H23 lung): 3.25 µM
- TGI (786-0 renal): 11.9 µM
- TGI (SF-295 CNS): 18.5 µM
- TGI (SF-539 CNS): 4.23 µM
- TGI (BT-549 breast): 2.85 µM
- TGI (UO-31 renal): 3.01 µM
- TGI (U251 CNS): 3.56 µM
- TGI (MALME-3M melanoma): 2.97 µM

SMILES: N#Cc1c(N)[nH]c(=S)c(C#N)c1-c1ccccc1
- TGI (ACHN renal): > 100 µM
- TGI (OVCAR-5 ovarian): > 100 µM
- TGI (SK-MEL-28 melanoma): > 100 µM
- TGI (NCI-H226 lung): > 100 µM
- TGI (NCI-H23 lung): > 100 µM
- TGI (786-0 renal): > 100 µM
- TGI (SF-295 CNS): > 100 µM
- TGI (SF-539 CNS): > 100 µM
- TGI (RPMI-8226 leukemia): > 100 µM
- TGI (BT-549 breast): > 100 µM
- TGI (UO-31 renal): > 100 µM
- TGI (U251 CNS): > 100 µM
- TGI (MALME-3M melanoma): > 100 µM
